“Also recorded” adds a separate entry of the source.
Key:
NF-κB = assay: NF-κB-luciferase activity assay, AR42J cells; type: cell-based; details: for effect on RC-induced NF-κB-luciferase levels: U73122 5 μM, 2-APB 100 μM, BAPTA 64 μM
Procedure: NF-κB-luciferase activity assay. AR42J cells were differentiated towards an acinar phenotype by administering dexamethasone (100 nM) for 48-72 hr^17. AR42J cells were infected with Ad-NF-κB luciferase 16 h prior to stimulation using a previously described method^12. Following a wash with DMEM/F12 medium, acinar cells were evenly distributed in a 48-well plate and incubated for 30 min at 37° C. They were incubated with RC at varying concentrations and times. NF-κB-luciferase was measured using a commercially available luciferase assay (Promega, Madison, Wis.). Briefly, cells were spun at 1,000 rpm for 5 min, washed with PBS, and lysed using reporter lysis 5× buffer (Promega, catalog no. E397A). Samples were vortexed and spun at 12,000×g for 2 min. The supernatant was plated, and luminescence was measured using a Synergy H1 plate reader (BioTek, Winooski, Vt.) and normalized to total […].

[1] = tested on: calcineurin (NFAT-luciferase); assay: NFAT-luciferase activity assay (calcineurin activation), mouse primary acinar cells; type: cell-based; details: 2-APB 100 μM, 30 min pre-treatment; RC 9%
Procedure: (§1) NFAT-luciferase activity assay. Acinar cells were infected with Ad-NFAT-luciferase following a previously described procedure^10,15,16. The construct includes a luciferase gene placed downstream of an IL-4 promoter which contains nine tandem NFAT binding sites^10. Acinar cells were incubated with the NFAT-driven luciferase adenovirus for 1.5 hr prior to stimulation. All of the stated inhibitors were added for 30 min prior to stimulation with RC. NFAT-luciferase was measured using the luciferase assay system. Briefly, cells were spun at 1,000 rpm for 5 min, washed with PBS, and lysed using reporter lysis 5× buffer (Promega #E397A, Madison, Wis.). Samples were vortexed and spun at 12,000 g for 2 min. Supernatant was plated, and luminescence was measured using a Synergy H1 plate reader (BioTek, Winooski, Vt.) and normalized to total protein.

[2] = tested on: calcineurin (NFAT-luciferase); assay: NFAT-luciferase activity assay, AR42J cells; type: cell-based; details: for effect on RC (6%)-induced NFAT-luciferase activity: pretreatment, FK506 24 μM, CsA 16 μM, U73122 5 μM, 2-APB 100 μM, BAPTA 64 μM
Procedure: as §1

AR42J cells = assay: Ca^2+ signals (Fluo-4AM) in AR42J cells; type: cell-based; details: U73122 5 μM; 2-APB 100 μM
primary acinar cells = assay: Cell necrosis assay (propidium iodide uptake), primary acinar cells; type: cell-based, mouse; details: for effect on RC (12%)-induced acinar cell injury (PI uptake): 6 hr incubation, U73122 5 μM, 2-APB 100 μM, BAPTA 64 μM, IKK-2 20 μM, FK506 24 μM, CsA 16 μM
Procedure: Cell necrosis assay. Acinar cells were incubated in a 48-well plate with 50 μg/ml of propidium iodide (PI) for 30 min prior to addition of RC. Fluorescence was measured at 536 nm excitation and 617 nm emission wavelengths over time a time course of up to 6 hr. Fluorescence was measured after cell lysis with 0.5% Triton-X 100 was used to normalize the results relative to total DNA.

[3] = high-affinity Ca^2+-sensing dye (Invitrogen); cited from earlier work
pancreatic NF-κB = assay: Imaging pancreatic NF-κB bioluminescence in vivo (AAV6-NF-κB-luciferase); design: species or system mouse; details: RC-infused mice, 4 hr after surgery
Procedure: Imaging pancreatic NF-κB bioluminescence in vivo. An AAV6-NF-κB-luciferase reporter was constructed, expanded in HEK293 cells, and purified as previously described^18-20,39. A volume of 100 μl of virus (10^12 GCP/ml) was infused into the pancreaticobiliary duct at a rate of 10 μl/min using the same technique of RC infusion described above and recently published^21,39. After a 5-week recovery from the surgery, mice underwent PEP induction with or without FK506 treatment. At varying time points after the surgery, ranging from 2 to 36 hr, bioluminescence signals were obtained by first giving a subcutaneous injection of luciferin (150 μg/g body weight) in the scruff of the neck 15 min before the start of imaging. The mice were briefly anesthetized with isoflurane and placed in the supine position in a bioluminescent imaging chamber (IVIS spectrum imager; Perkin Elmer, Waltham, Mass.) for 3-10 min. Average pixel intensity was measured from a pancreatic region of interest (in the upper abdomen). Raw time points from each mouse were normalized to its individual baseline intensity at time zero.

pancreatic acinar cells = assay: ATP level measurements in pancreatic acinar cells; type: cell-based, mouse; details: RC, concentration dependent
Procedure: ATP level measurements. Following isolation, pancreatic acinar cells were cultured in DMEM/F12 Medium (0.5 ml/well of a 48-well plate) at 37° C. water bath and treated with RC±FK506. Cells were collected at indicated time points and lysed in 100 μl lysis buffer (100 mM Tris pH 7.75, 4 mM EDTA). ATP levels were measured from 20 μl aliquots of acinar cell lysates using the ENLITEN luciferase/luciferin reagent (Promega catalog no. FF2021).

[4] = tested on: IL-6, GADD45B, IL-1β gene expression; assay: Real-time PCR of pancreatic head (IL-6, GADD45B, IL-1β); type: in vivo, mouse; details: RC exposure
Procedure: RNA extraction from whole pancreas and real-time PCR. Total RNA from the pancreatic head was obtained by homogenizing 40 mg of tissue in 2 ml of TRIzol reagent (Life Technologies; Grand Island N.Y.) at 4° C. and immediately flash frozen in liquid nitrogen. Samples were thawed on ice and centrifuged at 12,000×g for 10 min at 4° C. The supernatant was diluted with 200 μl of chloroform and centrifuged at 12,000×g for 15 min at 4° C. The upper aqueous phase was treated with 0.5 ml of isopropanol and centrifuged at 10,000×g for 10 min at 4° C. The pellet was resuspended with 150 μl of 75% ethanol and centrifuged at 7500×g for 5 min at 4° C. The pellet was air-dried and dissolved in 100 μl of nuclease-free water. Total RNA samples were used to generate cDNA using the iScript Advanced cDNA synthesis Kit (Bio Rad; Hercules, Calif.).
Quantitative real-time PCR (rtPCR) was performed to determine the relative expression of the cytokines IL-6 and IL-1β as well as the cell growth arrest and DNA-damage inducible gene GADD45B. The primer pairs for each as well as a GAPDH control were obtained as part of the PrimePCR-PreAMP SYBR Green Assay (Bio Rad; unique assay ID #qMmuCEP0054186, qMmuCID0005641, qMmuCEP0039581). rtPCR reactions were carried out in 20 μl volume reactions using the SsoAdvanced Universal Supermix SYBR Green system (Bio Rad). The reactions contained 1× SsoAdvanced Universal SYBR Green Supermix, 300 nM forward Primer, 300 nM reverse primer and 100 ng cDNA. rtPCR conditions were 95° C. for 10 sec and 60° C. for 30 sec for 35 cycles on a Bio Rad CFX96 Touch thermocycler (Bio Rad). Results for the expression of mRNA were normalized to expression of 18S rRNA and are represented relative to expression levels for each of the control groups.

pancreas = assay: Intra-ductal RC infusion (PEP model) in mice: histological severity, serum amylase; type: in vivo, mouse
Excerpt: Intra-ductal RC infusion in mice. The procedure for retrograde infusion into the CBD and pancreatic duct has been described before^14. Briefly, Swiss Webster mice were anesthetized with isoflurane. A midline incision was made to reveal the abdominal cavity. The duodenum was flipped to reveal its distal side and held in place by ligatures. […] needle was inserted through the anti-mesenteric aspect of the duodenum to cannulate the CBD. A small bull dog clamp was applied to the distal CBD (near the duodenum) to prevent back flow of the infusate into the duodenal lumen and to hold the cannula in place. A larger bull dog clamp was applied to the proximal CBD (near the liver) to prevent infusion into the liver and thus to direct flow to the pancreatic duct. Total volumes of 50-100 μl of iohexol, iopamidol, or normal saline (NS) were infused at 10-20 μl per min for 5 min using a P33 perfusion pump (Harvard Apparatus, Holliston, Mass.). Upon completion of the infusion, the bull dog clamps were released. The exterior abdominal wound was closed using 7 mm wound clips, and a single injection of buprenorphine (0.075 mg/kg) was given immediately after the surgery. Mice recovered on a heating pad for 30 min after the procedure. They were given free access to food and water after the surgery. Pancreas tissue preparation, histological grading, and serum amylase. The pancreas, duodenum, and spleen were fixed at room temperature for 24 hr in 4% paraformaldehyde. Paraffin-embedded sections were stained with hematoxylin an eosin (HE) and graded using a 20× objective over 10 separate fields in a blinded fashion. Pancreas tissue was graded for edema, inflammatory infiltrate, and necrosis as described by Wildi et al.^67. Whole blood samples were centrifuged at 1500×g for 5 min at 4° C. Serum amylase was measured using a Phadebas kit (Amersham Pharmacia, Rochester N.Y.) as previously described^68.

[5] = tested on: mouse pancreatic acinar cells; assay: Ca^2+ signals (Fluo-4AM) in mouse pancreatic acinar cells; type: cell-based; details: RC 25% and 33%
Procedure: Detection and analysis of cellular Ca^2+ signals from mouse and human acini. Acinar cells were loaded at room temperature with the high-affinity Ca^2+-sensing dye Fluo-4AM (Kd=300 nM; Invitrogen). Acinar cells were plated on acid-washed glass coverslips and then mounted on a perifusion chamber. Thereupon, they were stimulated at room temperature with varying concentrations of RC (17-50%) diluted in HEPES buffer. Carbachol (1 mM) was given at the end of each experiment to confirm that the cells were intact and could mobilize intracellular Ca^2+ stores. A Zeiss LSM710 laser scanning confocal microscope was used with a 20×, 1.4 numerical aperture objective. The dye was excited at 488 nm wavelength, and emission signals of >515 nm were collected every 2 sec. Fluorescence from individual acinar cells was recorded. Analysis of recordings was performed using ImageJ software (NIH, Bethesda, Md.), and mean fluorescence over time in each region was graphed.
Preparation of mouse pancreatic acini for Ca^2+ imaging. Groups of pancreatic acinar cells were isolated as previously described^26,69, with minor modifications. […]

NRK-52E renal cell line = details: long incubation (4 hr); cited from earlier work

NCCOB(c1ccccc1)c1ccccc1 [2-APB]
effect on RC-induced NF-κB-luciferase levels (NF-κB): reduced
reduction of RC-induced NFAT-luciferase rise [1]: 47%
effect on RC (6%)-induced NFAT-luciferase activity [2]: prevented
effect on RC (25%)-induced Ca^2+ signals (AR42J cells): prevented
effect on RC (12%)-induced acinar cell injury (PI uptake) (primary acinar cells): prevented

CC(=O)OCOC(=O)CN(CC(=O)OCOC(C)=O)c1ccc(C)cc1OCCOc1cc(-c2c3cc(F)c(=O)cc-3oc3cc(OCOC(C)=O)c(F)cc23)ccc1N(CC(=O)OCOC(C)=O)CC(=O)OCOC(C)=O [Fluo-4AM]
Kd [3]: 300 nM

CCCCCCCCCCC[C@@H](C[C@@H]1OC(=O)[C@H]1CCCCCC)OC(=O)[C@H](CC(C)C)NC=O [Orlistat]
effect on activation of NF-κB with RC (NF-κB; Orlistat pretreatment (50-100 μM), RC 16%): did not significantly reduce

CC(=O)N(CC(O)CO)c1c(I)c(C(=O)NCC(O)CO)c(I)c(C(=O)NCC(O)CO)c1I (centres unmarked) [RC, iohexol]
peak in pancreatic NF-κB luciferase compared to NS sham (pancreatic NF-κB): 13 fold
ATP levels (pancreatic acinar cells): depletion of ATP levels
expression of GADD45B [4]: upregulated
expression of IL-1β [4]: upregulated
expression of IL-6 [4]: upregulated
severity of pancreatitis at pH 6 compared to pH 7 (pancreas; RC buffered with 10 mM HEPES, pH clamped at 6): no increased severity of pancreatitis
increase in histological severity above the intra-ductal NS sham control (pancreas; intraductal RC at doubled rate and volume, pancreatic head 24 hr after procedure): 59%
serum amylase increase (pancreas; intraductal RC, 6 hr post-procedure): at least 50%
amplitude of Ca^2+ signal above baseline [5]: 400%
propidium iodide (PI) uptake (primary acinar cells; RC exposure for 6 hr): concentration-dependent increase

COc1ccc2c(c1)CC[C@@H]1[C@@H]2CC[C@]2(C)[C@@H](NCCCCCCN3C(=O)C=CC3=O)CC[C@@H]12 [U73122]
effect on RC-induced NF-κB-luciferase levels (NF-κB): reduced
effect on RC (6%)-induced NFAT-luciferase activity [2]: prevented
effect on RC (25%)-induced Ca^2+ signals (AR42J cells): prevented
effect on RC (12%)-induced acinar cell injury (PI uptake) (primary acinar cells): prevented

C[C@H](O)C(=O)Nc1c(I)c(C(=O)NC(CO)CO)c(I)c(C(=O)NC(CO)CO)c1I [iopamidol]
NF-κB-luciferase on exposure to radiocontrast (NF-κB; AR42J cells, 6 hr): induced NF-κB activation in a concentration-dependent manner
induction of pancreatitis by intraductal infusion (histological severity, serum amylase, serum IL-6) (pancreas; iopamidol (Isovue 300) compared with iohexol, 24 hr): similar; also recorded: induces pancreatitis
calcineurin/NFAT activation on exposure to radiocontrast ([2]; AR42J cells): induced NFAT activation in a concentration-dependent manner

O=C(NCC(O)CO)c1c(I)c(C(=O)NCC(O)CO)c(I)c(N(CCO)C(=O)CO)c1I (centres unmarked) [ioversol]
baseline cytosolic Ca^2+ levels (NRK-52E renal cell line): caused a slow, globalized increase in baseline cytosolic Ca^2+ levels

OC[C@@H](O)[C@@H](O)[C@H](O)[C@H](O)CO [mannitol]
NF-κB activation under hyperosmolar control (NF-κB; mannitol at concentrations equimolar to RC): failed to cause an increase

Source: patent US10898592B2, “Compositions and methods for reducing the risk of post-imaging pancreatitis” (University Of Pittsburgh—Of The Commonwealth System Of …, priority 2015, dated 2021)
